The test system of one assay is late watergrass. Description: Test Example 1: herbicidal activity, application before weed generation under submerged conditions (Table 16, symbol A). As to conditions: 320 g/ha applied herbicide. The format is in vivo, late watergrass (Echinochloa oryzicola). Put shortly:
(§1)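 Emulsion formulation, water-diluted to set dose, was put onto the flooded surface (4 cm depth, alluvial soil) the same day weeds were sown and 2.5-leaf rice transplanted. After 3 weeks at 25-30 °C under glass, each species was rated 0 (≤5% kill) to 5 (≥90% kill).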

In another assay the test system is Japanese bulrush. Description: Test Example 1: herbicidal activity, application before weed generation under submerged conditions (Table 16, symbol B). The format is in vivo, Japanese bulrush (Schoenoplectus juncoides). To be noted: 320 g/ha applied herbicide. Put shortly:
as §1

The next assay has as its system oval-leafed pondweed. In words: Test Example 1: herbicidal activity, application before weed generation under submerged conditions (Table 16, symbol C). The format is in vivo, oval-leafed pondweed (Monochoria vaginalis). As to conditions: 320 g/ha applied herbicide. Summed up: as §1
Assay [1] has as its system barnyard grass. In words: Test Example 3: herbicidal effect by foliage application, Wagner pot (Table 18, symbol H). The format is in vivo, barnyard grass (Echinochloa crus-galli). As to conditions: amount of applied herbicide 320 g/ha. Put shortly:
(§2)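 Plants were sown in alluvial soil held under 0.1–0.5 cm standing water and grown 14 days in a greenhouse at 25–30 °C. An emulsifiable formulation, water-diluted to the set dose, was then sprayed onto the foliage, and effects were scored three weeks later using previously defined criteria.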

A further assay has as its system Chinese sprangletop. Description: Test Example 3: herbicidal effect by foliage application, Wagner pot (Table 18, symbol D). To be noted: amount of applied herbicide 320 g/ha. Format: in vivo, chinese sprangletop (Leptochloa chinensis). Put shortly: as §2
The subject of the next assay is rice flat sedge. In words: Test Example 3: herbicidal effect by foliage application, Wagner pot (Table 18, symbol E). Format: in vivo, rice flat sedge (Cyperus iria). As to conditions: amount of applied herbicide 320 g/ha. Summed up:
as §2

Another assay concerns southern crabgrass. Description: Test Example 4: herbicidal effect by soil treatment (Table 19, symbol F). As to conditions: amount of applied herbicide 320 g/ha. Format: in vivo, southern crabgrass (Digitaria ciliaris). Summed up:
(§3)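 Step 1: sow seeds in sterilized diluvial soil, cover ~1.5 cm. Step 2: spray diluted emulsion onto soil surface at predetermined rate. Step 3: greenhouse, 25–30° C, three weeks. Step 4: grade effect on each plant by earlier criteria.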

A further assay concerns green foxtail. In words: Test Example 4: herbicidal effect by soil treatment (Table 19, symbol G). Format: in vivo, green foxtail (Setaria viridis). As to conditions: amount of applied herbicide 320 g/ha. Put shortly: as §3
Assay [2] concerns barnyard grass. In words: Test Example 4: herbicidal effect by soil treatment (Table 19, symbol H). Format: in vivo, barnyard grass (Echinochloa crus-galli). As to conditions: amount of applied herbicide 320 g/ha. Summed up: as §3
A further assay deals with wild oat. Description: Test Example 4: herbicidal effect by soil treatment (Table 19, symbol I). Format: in vivo, wild oat (Avena fatua). As to conditions: amount of applied herbicide 320 g/ha. Summed up:
as §3

Another assay relates to blackgrass. In words: Test Example 4: herbicidal effect by soil treatment (Table 19, symbol J). Format: in vivo, blackgrass (Alopecurus myosuroides). As to conditions: amount of applied herbicide 320 g/ha. Put shortly:
as §3

Another assay relates to Italian ryegrass. In words: Test Example 4: herbicidal effect by soil treatment (Table 19, symbol K). The format is in vivo, Italian ryegrass (Lolium multiflorum). To be noted: amount of applied herbicide 320 g/ha. Summed up: as §3
The test system of a further assay is windgrass. Description: Test Example 4: herbicidal effect by soil treatment (Table 19, symbol L). The format is in vivo, windgrass (Apera spica-venti). As to conditions: amount of applied herbicide 320 g/ha. Put shortly:
as §3

Another assay concerns velvetleaf. Description: Test Example 4: herbicidal effect by soil treatment (Table 19, symbol M). To be noted: amount of applied herbicide 320 g/ha. The format is in vivo, velvetleaf (Abutilon theophrasti). Put shortly: as §3
In the next assay the test system is redroot pigweed. Description: Test Example 4: herbicidal effect by soil treatment (Table 19, symbol N). Format: in vivo, redroot pigweed (Amaranthus retroflexus). As to conditions: amount of applied herbicide 320 g/ha. Summed up: as §3
In a further assay the test system is lambsquarters. Description: Test Example 4: herbicidal effect by soil treatment (Table 19, symbol O). The format is in vivo, lambsquarters (Chenopodium album). To be noted: amount of applied herbicide 320 g/ha. Summed up:
as §3

The next assay concerns chickweed. Description: Test Example 4: herbicidal effect by soil treatment (Table 19, symbol P). The format is in vivo, common chickweed (Stellaria media). As to conditions: amount of applied herbicide 320 g/ha. Put shortly:
as §3

For another assay, the system named is persian speedwell. Description: Test Example 4: herbicidal effect by soil treatment (Table 19, symbol R). Format: in vivo, Persian speedwell (Veronica persica). As to conditions: amount of applied herbicide 320 g/ha. Summed up: as §3

On to `CCCC(=O)Oc1c(C)nn(C)c(=O)c1-c1c(-c2ccc(Cl)cc2OC)sc2ccc(F)cc12` [2-369], for which the “Herbicidal effect on A: late watergrass (grade 0-5)” value with late watergrass is listed as 0 (Herbicidal rate of 5% or less (almost no effect)). For the same compound, the “Herbicidal effect on B: Japanese bulrush (grade 0-5)” value (“Herbicidal effect on B” below) in the assay on Japanese bulrush was 0 (Herbicidal rate of 5% or less (almost no effect)). In addition, the “Herbicidal effect on C: oval-leafed pondweed (grade 0-5)” value (from here on “Herbicidal effect on C”) with oval-leafed pondweed was 2 (Herbicidal rate of 20% or more and less than 40%). Also, in the assay on barnyard grass [1], the “herbicidal effect on H: barnyard grass” value was 4 (Herbicidal rate of 70% or more and less than 90%). Moreover, the “herbicidal effect on D: Chinese sprangletop” value (shortened to “herbicidal effect on D”) in the assay on Chinese sprangletop is reported as 5 (Herbicidal rate of 90% or more (almost completely withered)). The “herbicidal effect on E: rice flat sedge” value with rice flat sedge is 4 (Herbicidal rate of 70% or more and less than 90%). Also, the “herbicidal effect, F: southern crabgrass” value with southern crabgrass is recorded as 0 (Herbicidal rate of 5% or less (almost no effect)). The “herbicidal effect, G: green foxtail” value in the assay on green foxtail is reported as 0 (Herbicidal rate of 5% or less (almost no effect)). In the assay on barnyard grass [2], the “herbicidal effect, H: barnyard grass” value is given as 0 (Herbicidal rate of 5% or less (almost no effect)). Also, the “herbicidal effect, I: wild oat” value in the assay with wild oat was 0 (Herbicidal rate of 5% or less (almost no effect)). For the same compound, the “herbicidal effect, J: blackgrass” value in the assay with blackgrass is recorded as 0 (Herbicidal rate of 5% or less (almost no effect)). Besides, the “herbicidal effect, K: Italian ryegrass” value in the assay with Italian ryegrass was 0 (Herbicidal rate of 5% or less (almost no effect)). Also, the “herbicidal effect, L: windgrass” value in the assay on windgrass was 3 (Herbicidal rate of 40% or more and less than 70%). The “herbicidal effect, M: velvetleaf” value in the assay on velvetleaf is 0 (Herbicidal rate of 5% or less (almost no effect)). In the assay with redroot pigweed, the “herbicidal effect, N: redroot pigweed” value is on record as 0 (Herbicidal rate of 5% or less (almost no effect)). Further, in the assay with lambsquarters, the “herbicidal effect, O: lambsquarters” value was 0 (Herbicidal rate of 5% or less (almost no effect)). Besides, the “herbicidal effect, P: chickweed” value in the assay on chickweed is recorded as 0 (Herbicidal rate of 5% or less (almost no effect)). Further, in the assay with persian speedwell, the “herbicidal effect, R: persian speedwell” value was 0 (Herbicidal rate of 5% or less (almost no effect)).

Turning to `Cc1nn(C)c(=O)c(-c2c(-c3ccc(OC(F)F)cc3)sc3ccc(Cl)cc23)c1O` [2-374], the “Herbicidal effect on A: late watergrass (grade 0-5)” value in the assay on late watergrass was 3 (Herbicidal rate of 40% or more and less than 70%). Moreover, in the assay on Japanese bulrush, the “Herbicidal effect on B” value is 0 (Herbicidal rate of 5% or less (almost no effect)). Also, the “Herbicidal effect on C” value with oval-leafed pondweed is listed as 0 (Herbicidal rate of 5% or less (almost no effect)). Besides, the “herbicidal effect on H: barnyard grass” value in the assay with barnyard grass [1] was 5 (Herbicidal rate of 90% or more (almost completely withered)). Further, the “herbicidal effect on D” value in the assay with Chinese sprangletop is 4 (Herbicidal rate of 70% or more and less than 90%). For the same compound, in the assay with rice flat sedge, the “herbicidal effect on E: rice flat sedge” value is given as 5 (Herbicidal rate of 90% or more (almost completely withered)). In addition, in the assay on southern crabgrass, the “herbicidal effect, F: southern crabgrass” value is 4 (Herbicidal rate of 70% or more and less than 90%). In the assay on green foxtail, the “herbicidal effect, G: green foxtail” value was 1 (Herbicidal rate of 5% or more and less than 20%). Further, the “herbicidal effect, H: barnyard grass” value with barnyard grass [2] is 4 (Herbicidal rate of 70% or more and less than 90%). Also, the “herbicidal effect, I: wild oat” value in the assay on wild oat was 0 (Herbicidal rate of 5% or less (almost no effect)). The “herbicidal effect, J: blackgrass” value in the assay with blackgrass is 3 (Herbicidal rate of 40% or more and less than 70%). Further, the “herbicidal effect, K: Italian ryegrass” value with Italian ryegrass is 4 (Herbicidal rate of 70% or more and less than 90%). In addition, in the assay on windgrass, the “herbicidal effect, L: windgrass” value is listed as 5 (Herbicidal rate of 90% or more (almost completely withered)). For the same compound, in the assay with velvetleaf, the “herbicidal effect, M: velvetleaf” value was 3 (Herbicidal rate of 40% or more and less than 70%). Further, the “herbicidal effect, N: redroot pigweed” value with redroot pigweed was 4 (Herbicidal rate of 70% or more and less than 90%). Further, the “herbicidal effect, O: lambsquarters” value in the assay with lambsquarters is given as 5 (Herbicidal rate of 90% or more (almost completely withered)). In addition, in the assay with chickweed, the “herbicidal effect, P: chickweed” value is 3 (Herbicidal rate of 40% or more and less than 70%). Further, the “herbicidal effect, R: persian speedwell” value with persian speedwell is recorded as 5 (Herbicidal rate of 90% or more (almost completely withered)).

As to `CCCC(=O)Oc1c(C)nn(C)c(=O)c1-c1c(-c2cnccc2Cl)sc2ccc(F)cc12` [2-386], in the assay with late watergrass, the “Herbicidal effect on A: late watergrass (grade 0-5)” value is 2 (Herbicidal rate of 20% or more and less than 40%). Moreover, in the assay with Japanese bulrush, the “Herbicidal effect on B” value is listed as 0 (Herbicidal rate of 5% or less (almost no effect)). For the same compound, in the assay on oval-leafed pondweed, the “Herbicidal effect on C” value is given as 0 (Herbicidal rate of 5% or less (almost no effect)). In addition, the “herbicidal effect on H: barnyard grass” value in the assay on barnyard grass [1] is reported as 5 (Herbicidal rate of 90% or more (almost completely withered)). The “herbicidal effect on D” value in the assay on Chinese sprangletop is 4 (Herbicidal rate of 70% or more and less than 90%). Further, the “herbicidal effect on E: rice flat sedge” value in the assay on rice flat sedge was 3 (Herbicidal rate of 40% or more and less than 70%). Further, in the assay with southern crabgrass, the “herbicidal effect, F: southern crabgrass” value is 4 (Herbicidal rate of 70% or more and less than 90%). Also, the “herbicidal effect, G: green foxtail” value in the assay on green foxtail was 3 (Herbicidal rate of 40% or more and less than 70%). Also, the “herbicidal effect, H: barnyard grass” value in the assay with barnyard grass [2] was 4 (Herbicidal rate of 70% or more and less than 90%). In the assay with wild oat, the “herbicidal effect, I: wild oat” value was 1 (Herbicidal rate of 5% or more and less than 20%). In the assay on blackgrass, the “herbicidal effect, J: blackgrass” value is reported as 0 (Herbicidal rate of 5% or less (almost no effect)). In addition, the “herbicidal effect, K: Italian ryegrass” value in the assay on Italian ryegrass is 4 (Herbicidal rate of 70% or more and less than 90%). Also, the “herbicidal effect, L: windgrass” value with windgrass is 2 (Herbicidal rate of 20% or more and less than 40%). The “herbicidal effect, M: velvetleaf” value in the assay with velvetleaf is 1 (Herbicidal rate of 5% or more and less than 20%). The “herbicidal effect, N: redroot pigweed” value in the assay with redroot pigweed was 4 (Herbicidal rate of 70% or more and less than 90%). For the same compound, the “herbicidal effect, O: lambsquarters” value with lambsquarters is 4 (Herbicidal rate of 70% or more and less than 90%). For the same compound, the “herbicidal effect, P: chickweed” value with chickweed is listed as 5 (Herbicidal rate of 90% or more (almost completely withered)). Further, the “herbicidal effect, R: persian speedwell” value in the assay with persian speedwell is given as 5 (Herbicidal rate of 90% or more (almost completely withered)).

The values are drawn from patent US20230085307A1, “PYRIDAZINONE COMPOUND AND HERBICIDE” (NISSAN CHEMICAL CORPORATION, priority 2019, published 2023).
